Patent US20230075856A1, “CYCLIC SULFAMIDE COMPOUNDS FOR TREATMENT OF HBV” (Assembly Biosciences, Inc., priority 2018, published 2023)
Where two headings read alike, the source gives them in different places.

Tested on: HBV viral load production from HepAD38 cells
Assay: Viral production from HepAD38 cells: viral load in supernatant by qPCR of the HBV core sequence
Assay type: cell-based
Details: 5 days incubation, qPCR of supernatant HBV DNA vs DMSO control, read-out: viral load lowering EC50 (Activity)
Procedure: Assay Measuring Activity of Test Compounds on Viral Production from HepAD38 Cells
HepAD38 cells grown in a T-150 flask (Corning, cat #: 430825) with Growth Medium (DMEM/F12 […] (Hyclone, cat #: SH30023.02), 1× Pen/Strep (Invitrogen, cat #: 15140-122), 10% FBS (Tissue Culture Biologics, cat #: 101), […] G418 (Alfa Aesar, cat #: J62671), 1 μg/mL Tetracycline (Teknova, cat #: T3320)) were detached with 0.25% trypsin-EDTA (Invitrogen, cat #: 25200-056). Tetracycline-free treatment medium (15 mL DMEM/F12 (1:1) 1× Pen/step, with 2% FBS, Tet-system approved (Clontech, cat #: 631106) were then added to mix, transferred into a 50 ml conical tube (Falcon, cat #: 21008-918,) and spun at 1300 rpm for 5 min. Pelleted cells were then re-suspended/washed with 50 mL of 1×DPBS (Invitrogen, cat #: 14190-136) 2 times and 50 mL treatment medium twice. HepAD38 cells were then re-suspended with 10 mL of treatment medium, syringed and counted. Wells of 96-well clear bottom TC plate (Corning, cat #: 3904,) were seeded at 50,000 cells/well in 180 μL of treatment medium, and 20 μL of either 10% DMSO (Sigma, cat #: D4540) as controls or a 10× solution of test compounds in 10% DMSO in treatment media was added for a final compound concentration starting at 10 μM, and plates were incubated in 5% CO2 incubator at 37° C. for 5 days.
Subsequently viral load production was assayed by quantitative PCR (qPCR) of the HBV core sequence. PCR reaction mixture containing forward primers HBV-f 5′-CTGTGCCTTGGGTGGCTIT-3′ (IDT DNA), Reverse primers HBV-r 5′-[…]-3′ (IDT DNA), Fluorescent TaqMan™ Probes HBV-probe 5′-FAM/AGCTCCAAA/ZEN/[…]/3IABkFQ-3′ (IDT DNA), 10 μL/well of PerfeCTa® qPCR ToughMix® (Quanta Biosciences, Cat #: 95114-05K), and 6 μL/well of DEPC water (Alfa Aesar, cat #: J62087) was prepared. Four μL of supernatant was added to 16 μL of the reaction mixture in a qPCR plate (Applied Biosytems, Cat #: 4309849), sealed with a film (Applied Biosystems, Cat #: 4311971), centrifuged for a few seconds, and subsequently run on an Applied Biosystems VIIA7. The PCR mixture was incubated at 45° C. for 5 min, then 95° C. for 10 min, followed by 40 cycles of 10 seconds at 95° C. and 20 seconds at 60° C. Viral load was quantified against known HBV DNA standards by using ViiA™ 7 Software. Viral load in the supernatant from wells with treated cells were compared against viral load in supernatant from DMSO control wells (≥3 per plate). Cell viability assay was performed with CellTiter-Glo Luminescent Cell Viability Assay (Promega, cat #: G7573) with modification. Mixed appropriate amount of CellTiter-Glo (CTG) 1×DPBS in a 1:1 ratio, added 100 uL of the mixture to each well followed completely removal of all supernatant in each well without touching cell surface. Incubated the plate at room temperature for 10 min on an orbital shaker, and then read the plate with a plate reader (TECAN M1000 or Envision). EC50 or CC50 values were calculated through curve-fitting of the four-parameter nonlinear-logistic-regression model (GraphPad Prism or Dotmatics). CC50 values were all >10 μM.

[1] = Hepatitis B virus, HePAD38, 120 h

## Cc1nc(-c2ccccc2F)sc1CNC(=O)C1CC(C(=O)Nc2ccc(F)c(Cl)c2)N(C)S(=O)(=O)N1 (single isomer, unassigned) [1016-ISOMER-B, N3-(3-chloro-4-fluoro-phenyl)-N5-[[2-(2-fluorophenyl)-4-methyl-thiazol-5-yl]methyl]-2-methyl-1,1-dioxo-1,2,6-thiadiazinane-3,5-dicarboxamide]
[1]
  EC50: 50 to 100 nM

## Cc1ccccc1-c1nc(C)c(CNC(=O)C2CC(C(=O)Nc3ccc(F)c(Cl)c3)N(C)S(=O)(=O)N2)s1 (single isomer, unassigned) [1017-ISOMER-A, N3-(3-chloro-4-fluoro-phenyl)-2-methyl-N5-[[4-methyl-2-(o-tolyl)thiazol-5-yl]methyl]-1,1-dioxo-1,2,6-thiadiazinane-3,5-dicarboxamide]
[1]
  EC50: < 50 nM

## Cc1ccccc1-c1nc(C)c(CNC(=O)C2CC(C(=O)Nc3ccc(F)c(Cl)c3)N(C)S(=O)(=O)N2)s1 (single isomer, unassigned) [1017-ISOMER-B, N3-(3-chloro-4-fluoro-phenyl)-2-methyl-N5-[[4-methyl-2-(o-tolyl)thiazol-5-yl]methyl]-1,1-dioxo-1,2,6-thiadiazinane-3,5-dicarboxamide]
  EC50: 100 to 10000 nM

## CN1C(C(=O)Nc2ccc(F)c(Cl)c2)CC(C(=O)NC2CCN(c3ccnc(Br)c3)CC2)NS1(=O)=O (single isomer, unassigned) [1036-ISOMER-A, N5-[1-(2-bromo-4-pyridyl)-4-piperidyl]-N3-(3-chloro-4-fluoro-phenyl)-2-methyl-1,1-dioxo-1,2,6-thiadiazinane-3,5-dicarboxamide]
[1]
  EC50: < 50 nM

## CN1C(C(=O)Nc2ccc(F)c(Cl)c2)CC(C(=O)NC2CCN(c3ccnc(Br)c3)CC2)NS1(=O)=O (single isomer, unassigned) [1036-ISOMER-B, N5-[1-(2-bromo-4-pyridyl)-4-piperidyl]-N3-(3-chloro-4-fluoro-phenyl)-2-methyl-1,1-dioxo-1,2,6-thiadiazinane-3,5-dicarboxamide]
  EC50: 100 to 10000 nM

## CN1C(C(=O)Nc2ccc(F)c(Cl)c2)CC(C(=O)NC2CCN(c3ccnc(F)c3)CC2)NS1(=O)=O (single isomer, unassigned) [1040-ISOMER-A, N3-(3-chloro-4-fluoro-phenyl)-N5-[1-(2-fluoro-4-pyridyl)-4-piperidyl]-2-methyl-1,1-dioxo-1,2,6-thiadiazinane-3,5-dicarboxamide]
[1]
  EC50: < 50 nM

## CN1C(C(=O)Nc2ccc(F)c(Cl)c2)CC(C(=O)NC2CCN(c3ccnc(-c4ccccc4)c3)CC2)NS1(=O)=O (single isomer, unassigned) [1050-ISOMER-A, N3-(3-chloro-4-fluoro-phenyl)-2-methyl-1,1-dioxo-N5-[1-(2-phenyl-4-pyridyl)-4-piperidyl]-1,2,6-thiadiazinane-3,5-dicarboxamide]
[1]
  EC50: 100 to 10000 nM

## CN1C(C(=O)Nc2ccc(F)c(Cl)c2)CC(C(=O)NC2CCN(c3ccnc(-c4ccccc4)c3)CC2)NS1(=O)=O (single isomer, unassigned) [1050-ISOMER-B, N3-(3-chloro-4-fluoro-phenyl)-2-methyl-1,1-dioxo-N5-[1-(2-phenyl-4-pyridyl)-4-piperidyl]-1,2,6-thiadiazinane-3,5-dicarboxamide]
  EC50: < 50 nM

## CN1C(C(=O)Nc2ccc(F)c(Cl)c2)CC(C(=O)N[C@@H]2CCN(c3ccnc(Cl)c3)C2)NS1(=O)=O (single isomer, unassigned) [1055-R-ISOMER-A]
[1]
  EC50: 100 to 10000 nM

## CN1C(C(=O)Nc2ccc(F)c(Cl)c2)CC(C(=O)N[C@@H]2CCN(c3ccnc(Cl)c3)C2)NS1(=O)=O (single isomer, unassigned) [1055-R-ISOMER-B]
  EC50: < 50 nM

## CN1C(C(=O)Nc2ccc(F)c(Cl)c2)CC(C(=O)N[C@H]2CCN(c3ccnc(Cl)c3)C2)NS1(=O)=O (single isomer, unassigned) [1055-S-ISOMER-A]
[1]
  EC50: 100 to 10000 nM

## Cc1nc(-c2ccc(F)cc2)sc1CNC(=O)C1CC(C(=O)Nc2ccc(F)c(Cl)c2)N(C)S(=O)(=O)N1 (single isomer, unassigned) [1056-ISOMER-A, N3-(3-chloro-4-fluoro-phenyl)-N5-[[2-(4-fluorophenyl)-4-methyl-thiazol-5-yl]methyl]-2-methyl-1,1-dioxo-1,2,6-thiadiazinane-3,5-dicarboxamide]
[1]
  EC50: 100 to 10000 nM

## Cc1nc(-c2ccc(F)cc2)sc1CNC(=O)C1CC(C(=O)Nc2ccc(F)c(Cl)c2)N(C)S(=O)(=O)N1 (single isomer, unassigned) [1056-ISOMER-B, N3-(3-chloro-4-fluoro-phenyl)-N5-[[2-(4-fluorophenyl)-4-methyl-thiazol-5-yl]methyl]-2-methyl-1,1-dioxo-1,2,6-thiadiazinane-3,5-dicarboxamide]
  EC50: < 50 nM

## Cc1cn(-c2ccccc2)nc1CNC(=O)C1CC(C(=O)Nc2ccc(F)c(Cl)c2)N(C)S(=O)(=O)N1 (single isomer, unassigned) [1057-ISOMER-A, N3-(3-chloro-4-fluoro-phenyl)-2-methyl-N5-[(4-methyl-1-phenyl-pyrazol-3-yl)methyl]-1,1-dioxo-1,2,6-thiadiazinane-3,5-dicarboxamide]
[1]
  EC50: < 50 nM

## Cc1nc(-c2ccccn2)sc1CNC(=O)C1CC(C(=O)Nc2ccc(F)c(Cl)c2)N(C)S(=O)(=O)N1 (single isomer, unassigned) [1065-ISOMER-A, N3-(3-chloro-4-fluoro-phenyl)-2-methyl-N5-[[4-methyl-2-(2-pyridyl)thiazol-5-yl]methyl]-1,1-dioxo-1,2,6-thiadiazinane-3,5-dicarboxamide]
[1]
  EC50: 100 to 10000 nM

## Cc1nc(-c2ccccn2)sc1CNC(=O)C1CC(C(=O)Nc2ccc(F)c(Cl)c2)N(C)S(=O)(=O)N1 (single isomer, unassigned) [1065-ISOMER-B, N3-(3-chloro-4-fluoro-phenyl)-2-methyl-N5-[[4-methyl-2-(2-pyridyl)thiazol-5-yl]methyl]-1,1-dioxo-1,2,6-thiadiazinane-3,5-dicarboxamide]
  EC50: < 50 nM

## CN1C(C(=O)Nc2ccc(F)c(Cl)c2)CC(C(=O)N[C@H](c2ccccc2)c2cnc(Cl)s2)NS1(=O)=O (single isomer, unassigned) [1066-ISOMER-A]
[1]
  EC50: 100 to 10000 nM

## CN1C(C(=O)Nc2ccc(F)c(Cl)c2)CC(C(=O)N[C@H](c2ccccc2)c2cnc(Cl)s2)NS1(=O)=O (single isomer, unassigned) [1066-ISOMER-C]
[1]
  EC50: < 50 nM

## CN1C(C(=O)Nc2ccc(F)c(Cl)c2)CC(C(=O)N[C@@H](c2ccccc2)c2cnc(Cl)s2)NS1(=O)=O (single isomer, unassigned) [1066-ISOMER-D]
[1]
  EC50: 100 to 10000 nM

## CN1C(C(=O)Nc2ccc(F)c(Cl)c2)CC(C(=O)NC(c2ccccc2)c2cnc(-c3ccccc3)s2)NS1(=O)=O (single isomer, unassigned) [1067-ISOMER-A, N3-(3-chloro-4-fluoro-phenyl)-2-methyl-1,1-dioxo-N5-[phenyl-(2-phenylthiazol-5-yl)methyl]-1,2,6-thiadiazinane-3,5-dicarboxamide]
[1]
  EC50: < 50 nM

## CN1C(C(=O)Nc2ccc(F)c(Cl)c2)CC(C(=O)N[C@@H](c2ccccc2)c2cnc(-c3ccccc3)s2)NS1(=O)=O (single isomer, unassigned) [1067-ISOMER-B]
[1]
  EC50: 100 to 10000 nM

## CN1C(C(=O)Nc2ccc(F)c(Cl)c2)C[C@@H](C(=O)N[C@H](c2ccccc2)c2cnc(-c3ccccc3)s2)NS1(=O)=O (single isomer, unassigned) [1067-ISOMER-C]
[1]
  EC50: < 50 nM

## CN1C(C(=O)Nc2ccc(F)c(Cl)c2)CC(C(=O)N[C@@H](c2ccccc2)c2cnc(-c3ccccc3)s2)NS1(=O)=O (single isomer, unassigned) [1067-ISOMER-D]
[1]
  EC50: 100 to 10000 nM
